From patent US10913738B2 (BRISTOL-MYERS SQUIBB COMPANY, priority 2017, dated 2021)
Like-named read-outs stand apart in the source and are kept apart here.

Experiments:
[1] = target: T1, His-GST-TVMV-hRIPK1(1-324) (Homo sapiens, UniProt Q13546); experiment: RIPK1 HTRF Binding Assay
T1 construct: The coding region of human RIPK1(1-324) flanked by NdeI site at 5′ end; made in house; host or cells: Spodoptera frugiperda (Sf9) insect cells, baculovirus
T1 sequence (Q13546 1-324): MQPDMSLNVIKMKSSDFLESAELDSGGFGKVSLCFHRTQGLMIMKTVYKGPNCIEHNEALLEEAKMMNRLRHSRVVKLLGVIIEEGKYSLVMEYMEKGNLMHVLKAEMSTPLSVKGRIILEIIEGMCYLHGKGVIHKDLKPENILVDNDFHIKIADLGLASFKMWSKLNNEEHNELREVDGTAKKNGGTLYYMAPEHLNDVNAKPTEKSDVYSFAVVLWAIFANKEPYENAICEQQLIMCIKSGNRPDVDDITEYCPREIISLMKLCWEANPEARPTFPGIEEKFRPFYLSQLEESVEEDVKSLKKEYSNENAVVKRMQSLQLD

[2] = tested on: MLKL phosphorylation in HT29-L23 human colorectal adenocarcinoma cells; experiment: MLKL Phosphorylation High-Content Assay; assay type: cell-based; details: Homo sapiens
In short: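 IC50 and Ymax obtained by 4-parameter logistic fitting of MLKL phosphorylation, measured as mean circ-ring average intensity ratio from high-content images. Staining used an anti-phospho-S358 MLKL antibody overnight at 4° C., following six-hour cell incubation at 37° C.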

[3] = x marks IC50 class <20 nM, read-out: RIPK1 HTRF binding <20 nM
[4] = x marks IC50 class <20 nM, read-out: pMLKL cell activity <20 nM
[5] = x marks IC50 class 20-200 nM, read-out: RIPK1 HTRF binding 20-200 nM
[6] = x marks IC50 class >200 nM, read-out: pMLKL cell activity >200 nM
[7] = x marks IC50 class 20-200 nM, read-out: pMLKL cell activity 20-200 nM

`COc1ncc(-c2ccn3nc(N)nc3c2)cc1C(=O)NCc1ccccc1-c1ccccc1` [Example 106, 5-{2-amino-[1,2,4]triazolo[1,5-a]pyridin-7-yl}-N-({[1,1′-biphenyl]-2-yl}methyl)-2-methoxypyridine-3-carboxamide] was tested, and the IC50 [1, 3] was under 0.02 µM and the IC50 [2, 4] was under 0.02 µM.

`COc1ncc(-c2ccn3nc(N)nc3c2)cc1C(=O)Nc1cnn(C(c2ccccc2)c2ccccc2)c1` [Example 107, 5-{2-amino-[1,2,4]triazolo[1,5-a]pyridin-7-yl}-N-[1-(diphenylmethyl)-1H-pyrazol-4-yl]-2-methoxypyridine-3-carboxamide] was tested, and the IC50 [1, 5] was 0.02 to 0.2 µM and the IC50 [2, 6] was over 0.2 µM.

For `COc1ncc(-c2ccn3nc(N)nc3c2)cc1C(=O)NCc1ccccc1N1CCC(C)CC1` [Example 108, 5-{2-amino-[1,2,4]triazolo[1,5-a]pyridin-7-yl}-2-methoxy-N-{[2-(4-methylpiperidin-1-yl)phenyl]methyl}pyridine-3-carboxamide], the IC50 [1, 3] was under 0.02 µM and the IC50 [2, 4] was under 0.02 µM.

`COc1ncc(-c2ccn3nc(N)nc3c2)cc1C(=O)NCc1ccccc1Oc1ccccn1` [Example 109, 5-{2-amino-[1,2,4]triazolo[1,5-a]pyridin-7-yl}-2-methoxy-N-{[2-(pyridin-2-yloxy)phenyl]methyl}pyridine-3-carboxamide] was tested, and the IC50 [1, 3] was under 0.02 µM and the IC50 [2, 4] was under 0.02 µM.

`COc1ncc(-c2ccn3nc(N)nc3c2)cc1C(=O)NCc1ccccc1Oc1ccc(F)cc1` [Example 110, 5-{2-amino-[1,2,4]triazolo[1,5-a]pyridin-7-yl}-N-{[2-(4-fluorophenoxy)phenyl]methyl}-2-methoxypyridine-3-carboxamide] was tested, and the IC50 [1, 3] was under 0.02 µM and the IC50 [2, 4] was under 0.02 µM.

`COc1ncc(-c2ccn3nc(N)nc3c2)cc1C(=O)NCc1ccccc1S(=O)(=O)N1CCCCCC1` [Example 111, 5-{2-amino-[1,2,4]triazolo[1,5-a]pyridin-7-yl}-N-{[2-(azepane-1-sulfonyl)phenyl]methyl}-2-methoxypyridine-3-carboxamide] gave an IC50 [1, 3] of under 0.02 µM and an IC50 [2, 6] of over 0.2 µM.

`COc1ncc(-c2ccn3nc(N)nc3c2)cc1C(=O)N1CCC[C@@H](Cc2cccc(F)c2)C1` [Example 114, 7-{5-[(3S)-3-[(3-fluorophenyl)methyl]piperidine-1-carbonyl]-6-methoxypyridin-3-yl}-[1,2,4]triazolo[1,5-a]pyridin-2-amine] gave an IC50 [1, 3] of under 0.02 µM and an IC50 [2, 4] of under 0.02 µM.

`COc1ncc(-c2ccn3nc(N)nc3c2)cc1C(=O)NCc1ccccc1OC1CCOCC1` [Example 115, 5-{2-amino-[1,2,4]triazolo[1,5-a]pyridin-7-yl}-2-methoxy-N-{[2-(oxan-4-yloxy)phenyl]methyl}pyridine-3-carboxamide] showed an IC50 [1, 3] of under 0.02 µM and an IC50 [2, 4] of under 0.02 µM.

Work on `COc1ncc(-c2ccn3nc(N)nc3c2)cc1C(=O)NCc1cc(C(F)(F)F)ccc1F` [Example 116, 5-{2-amino-[1,2,4]triazolo[1,5-a]pyridin-7-yl}-N-{[2-fluoro-5-(trifluoromethyl)phenyl]methyl}-2-methoxypyridine-3-carboxamide] yielded an IC50 [1, 5] of 0.02 to 0.2 µM and an IC50 [2, 7] of 0.02 to 0.2 µM.

In the case of `COc1ncc(-c2ccn3nc(N)nc3c2)cc1C(=O)N1CCCC(Cc2ccc(Cl)cc2)C1` (stereo not shown) [Example 117, 7-(5-{3-[(4-chlorophenyl)methyl]piperidine-1-carbonyl}-6-methoxypyridin-3-yl)-[1,2,4]triazolo[1,5-a]pyridin-2-amine], the IC50 [1, 5] is reported as 0.02 to 0.2 µM and the IC50 [2, 6] is reported as over 0.2 µM.

`COc1ncc(-c2ccn3nc(N)nc3c2)cc1C(=O)N1CCCC(Cc2cccc(F)c2)C1` (stereo not shown) [Example 118, 7-(5-{3-[(3-fluorophenyl)methyl]piperidine-1-carbonyl}-6-methoxypyridin-3-yl)-[1,2,4]triazolo[1,5-a]pyridin-2-amine] showed an IC50 [1, 5] of 0.02 to 0.2 µM and an IC50 [2, 7] of 0.02 to 0.2 µM.

Work on `COc1ncc(-c2ccn3nc(N)nc3c2)cc1C(=O)NCc1cccc(C(F)(F)F)c1` [Example 119, 5-{2-amino-[1,2,4]triazolo[1,5-a]pyridin-7-yl}-2-methoxy-N-{[3-(trifluoromethyl)phenyl]methyl}pyridine-3-carboxamide] yielded an IC50 [1, 5] of 0.02 to 0.2 µM and an IC50 [2, 6] of over 0.2 µM.

For `COc1ccc(CC2CCCN(C(=O)c3cc(-c4ccn5nc(N)nc5c4)cnc3OC)C2)cc1` (stereo not shown) [Example 120, 7-(6-methoxy-5-{3-[(4-methoxyphenyl)methyl]piperidine-1-carbonyl}pyridin-3-yl)-[1,2,4]triazolo[1,5-a]pyridin-2-amine], the IC50 [1, 5] was 0.02 to 0.2 µM and the IC50 [2, 7] was 0.02 to 0.2 µM.

`COc1ncc(-c2ccn3nc(N)nc3c2)cc1C(=O)N1CCCC(Cc2ccc(C)cc2)C1` (stereo not shown) [Example 121, 7-(6-methoxy-5-{3-[(4-methylphenyl)methyl]piperidine-1-carbonyl}pyridin-3-yl)-[1,2,4]triazolo[1,5-a]pyridin-2-amine] was tested, and the IC50 [1, 5] was 0.02 to 0.2 µM and the IC50 [2, 7] was 0.02 to 0.2 µM.

Compound `COc1ncc(-c2ccn3nc(N)nc3c2)cc1C(=O)NCc1c(F)cc(F)cc1OCC1CCCC1` [Example 122, 5-{2-amino-[1,2,4]triazolo[1,5-a]pyridin-7-yl}-N-{[2-(cyclopentylmethoxy)-4,6-difluorophenyl]methyl}-2-methoxypyridine-3-carboxamide] has an IC50 [1, 3] of under 0.02 µM and an IC50 [2, 7] of 0.02 to 0.2 µM.

`COc1ncc(-c2ccn3nc(N)nc3c2)cc1C(=O)NCc1ccccc1OCC1CCCCC1` [Example 123, 5-{2-amino-[1,2,4]triazolo[1,5-a]pyridin-7-yl}-N-{[2-(cyclohexylmethoxy)phenyl]methyl}-2-methoxypyridine-3-carboxamide] showed an IC50 [1, 3] of under 0.02 µM and an IC50 [2, 7] of 0.02 to 0.2 µM.

With `COc1ncc(-c2ccn3nc(N)nc3c2)cc1C(=O)NCc1ncccc1OCC1CCCC1` [Example 124, 5-{2-amino-[1,2,4]triazolo[1,5-a]pyridin-7-yl}-N-{[3-(cyclopentylmethoxy)pyridin-2-yl]methyl}-2-methoxypyridine-3-carboxamide] the IC50 [1, 3] was under 0.02 µM and the IC50 [2, 7] was 0.02 to 0.2 µM.

With `COc1ncc(-c2ccn3nc(N)nc3c2)cc1C(=O)NCc1ccccc1OC(C)C1CCCC1` (stereo not shown) [Example 125, 5-{2-amino-[1,2,4]triazolo[1,5-a]pyridin-7-yl}-N-{[2-(1-cyclopentylethoxy)phenyl]methyl}-2-methoxypyridine-3-carboxamide] the IC50 [1, 3] was under 0.02 µM and the IC50 [2, 7] was 0.02 to 0.2 µM.

With `COc1ncc(-c2ccn3nc(N)nc3c2)cc1C(=O)NCc1c(F)cccc1OCC1CCCC1` [Example 126, 5-{2-amino-[1,2,4]triazolo[1,5-a]pyridin-7-yl}-N-{[2-(cyclopentylmethoxy)-6-fluorophenyl]methyl}-2-methoxypyridine-3-carboxamide] the IC50 [1, 3] was under 0.02 µM and the IC50 [2, 7] was 0.02 to 0.2 µM.

Compound `COc1ncc(-c2ccn3nc(N)nc3c2)cc1C(=O)NCc1cccnc1OCC1CCCC1` [Example 127, 5-{2-amino-[1,2,4]triazolo[1,5-a]pyridin-7-yl}-N-{[2-(cyclopentylmethoxy)pyridin-3-yl]methyl}-2-methoxypyridine-3-carboxamide] has an IC50 [1, 3] of under 0.02 µM and an IC50 [2, 7] of 0.02 to 0.2 µM.

With `COc1ncc(-c2ccn3nc(N)nc3c2)cc1C(=O)NCc1cc(F)cc(F)c1OCC1CCCC1` [Example 128, 5-{2-amino-[1,2,4]triazolo[1,5-a]pyridin-7-yl}-N-{[2-(cyclopentylmethoxy)-3,5-difluorophenyl]methyl}-2-methoxypyridine-3-carboxamide] the IC50 [1, 3] was under 0.02 µM and the IC50 [2, 4] was under 0.02 µM.

Work on `COc1ncc(-c2ccn3nc(N)nc3c2)cc1C(=O)NCc1cc(F)ccc1OCC1CCCC1` [Example 129, 5-{2-amino-[1,2,4]triazolo[1,5-a]pyridin-7-yl}-N-{[2-(cyclopentylmethoxy)-5-fluorophenyl]methyl}-2-methoxypyridine-3-carboxamide] yielded an IC50 [1, 3] of under 0.02 µM and an IC50 [2, 7] of 0.02 to 0.2 µM.

Work on `COc1ncc(-c2ccn3nc(N)nc3c2)cc1C(=O)NCc1ccc(F)cc1OCC1CCCC1` [Example 130, 5-{2-amino-[1,2,4]triazolo[1,5-a]pyridin-7-yl}-N-{[2-(cyclopentylmethoxy)-4-fluorophenyl]methyl}-2-methoxypyridine-3-carboxamide] yielded an IC50 [1, 3] of under 0.02 µM and an IC50 [2, 7] of 0.02 to 0.2 µM.

With `COc1ncc(-c2ccn3nc(N)nc3c2)cc1C(=O)NCc1ncccc1OCC1CC1` [Example 132, 5-{2-amino-[1,2,4]triazolo[1,5-a]pyridin-7-yl}-N-{[3-(cyclopropylmethoxy)pyridin-2-yl]methyl}-2-methoxypyridine-3-carboxamide] the IC50 [1, 5] was 0.02 to 0.2 µM and the IC50 [2, 7] was 0.02 to 0.2 µM.

In the case of `CCc1ccccc1CNC(=O)c1cc(-c2ccn3nc(N)nc3c2)cnc1OC` [Example 133, 5-{2-amino-[1,2,4]triazolo[1,5-a]pyridin-7-yl}-N-[(2-ethylphenyl)methyl]-2-methoxypyridine-3-carboxamide], the IC50 [1, 5] is reported as 0.02 to 0.2 µM and the IC50 [2, 6] is reported as over 0.2 µM.

`COc1ncc(-c2ccn3nc(N)nc3c2)cc1C(=O)N1CCC[C@H](Cc2ccc(F)cc2)C1` [Example 134, 7-{5-[(3R)-3-[(4-fluorophenyl)methyl]piperidine-1-carbonyl]-6-methoxypyridin-3-yl}-[1,2,4]triazolo[1,5-a]pyridin-2-amine] showed an IC50 [1, 5] of 0.02 to 0.2 µM and an IC50 [2, 4] of under 0.02 µM.
